Assay results: patent US10543159B2, “Hair papilla cell activator” (Ezaki Glico Co., Ltd., priority 2014, dated 2020)

Tested on: Wnt5a
Assay: Quantitative PCR gene expression in follicle dermal papilla cells: Wnt5a
Assay type: cell-based, human
Details: Example 3: 0.25% POs-Ca (R) or CaCl2 of equivalent calcium, DMEM, 37° C., 5 hours; Dunnett, n=6
Experimental: (1) 500 μl of a special medium in which 4×10^4 cells/ml of follicle dermal papilla cells were suspended was dispensed into a type I collagen-coated 24-well cell culture plate (Corning), and cultured at a cell density of 1.0×10^4 cells/cm^2 at 37° C. for 42 hours. […] Each of the solutions (a) to (c) was mixed with DMEM high glucose (Sigma, USA) at a ratio of 1:9.
(3) The medium was aspirated from each well obtained in (1), the well was washed by adding 1 ml of 1×PBS (137 mM NaCl, 8.1 mM Na2HPO4, 2.68 mM KCl, 1.47 mM KH2PO4 (pH 7.4); Wako Pure Chemical Industries, Ltd.), and aspirating the PBS, 500 μl of DMEM high glucose was added, and the cells were incubated in a CO2 incubator at 37° C. for 5 hours. […]
(4) The medium was removed from each well, and then mRNA was extracted using CellAmp Direct RNA Prep Kit for RT-PCR (Takara). The method was performed in accordance with the manual for the kit.
(5) 8 μl of the extracted mRNA solution (200 μl for each well) was used, and cDNA was obtained by the reverse transcription reaction at a scale of 40 μl, using PrimeScript RT Master Mix (Takara). The reaction conditions were as set forth in the manual for the kit.
(6) 0.5 μl of each of cDNA solutions diluted 2-fold with water, 1 μl of a solution containing 4 μM of each of primers 1 and 2 for each of the genes shown in Table 2, 5 μl of SYBR Premix Ex Taq II (Takara), and 3.5 μl of water were added, and quantitative PCR was performed on each of the genes. Using CFX96 Touch (BIO-RAD, USA), denaturation treatment at 95° C. for 30 seconds was performed, and then a two-step cycle at 95° C. for 5 seconds and at 62° C. for 20 seconds was performed for 65 cycles. Fluorescence intensity after each cycle was measured.
(7) Using PGK1 and GAPDH as reference genes, a comparative analysis of expression levels was performed with the analysis software (Bio-Rad CFX Manager 3.0) included in CFX96Touch. Relative expression levels were calculated under the default conditions of the software. […]

## O.O.[Ca+2].[Cl-].[Cl-] [CaCl2, calcium chloride dihydrate]
  expression of Wnt5a gene compared to control: significant increases in the expression of genes were not observed
